Assay [1] has as its target T1, CDK6-CYCLIND3 (Homo sapiens, UniProt Q00534).
T1 construct: purchased Carna
Put plainly: Microfluidic LabChip kinase inhibition assay, CDK6-CyclinD3. The class given is biochemical. Conditions: Table 2; 300 μM ATP, 2 nM enzyme; read-out: CDK6 IC50.

In assay [2] the target is CDK4-CYCLIND1 (Homo sapiens, UniProt P11802). Put plainly: Microfluidic LabChip kinase inhibition assay, CDK4-CyclinD1. Conditions: CDK4 IC50 (μM), Table 2; 200 μM ATP, 1 nM enzyme.
Chain of CDK4-CYCLIND1 (P11802 whole entry): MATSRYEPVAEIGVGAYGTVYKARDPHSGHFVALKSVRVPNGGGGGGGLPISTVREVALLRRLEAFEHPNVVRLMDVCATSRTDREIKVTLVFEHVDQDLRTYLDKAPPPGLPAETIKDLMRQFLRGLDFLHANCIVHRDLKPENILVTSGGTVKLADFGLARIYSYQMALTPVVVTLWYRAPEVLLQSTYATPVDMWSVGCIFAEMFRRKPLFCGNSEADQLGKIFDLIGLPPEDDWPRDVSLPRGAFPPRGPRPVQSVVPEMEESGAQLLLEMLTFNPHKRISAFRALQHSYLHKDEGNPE
Chain of CDK4-CYCLIND1 (P24385 whole entry partner): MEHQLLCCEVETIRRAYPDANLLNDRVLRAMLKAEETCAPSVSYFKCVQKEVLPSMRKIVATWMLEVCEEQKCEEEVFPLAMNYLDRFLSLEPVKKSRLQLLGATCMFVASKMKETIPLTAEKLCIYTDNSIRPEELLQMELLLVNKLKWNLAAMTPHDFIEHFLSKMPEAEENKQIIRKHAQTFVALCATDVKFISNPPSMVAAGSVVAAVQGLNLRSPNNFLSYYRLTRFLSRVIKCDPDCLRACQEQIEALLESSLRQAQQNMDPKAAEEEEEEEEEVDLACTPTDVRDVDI

T1 sequence (Q00534 whole entry): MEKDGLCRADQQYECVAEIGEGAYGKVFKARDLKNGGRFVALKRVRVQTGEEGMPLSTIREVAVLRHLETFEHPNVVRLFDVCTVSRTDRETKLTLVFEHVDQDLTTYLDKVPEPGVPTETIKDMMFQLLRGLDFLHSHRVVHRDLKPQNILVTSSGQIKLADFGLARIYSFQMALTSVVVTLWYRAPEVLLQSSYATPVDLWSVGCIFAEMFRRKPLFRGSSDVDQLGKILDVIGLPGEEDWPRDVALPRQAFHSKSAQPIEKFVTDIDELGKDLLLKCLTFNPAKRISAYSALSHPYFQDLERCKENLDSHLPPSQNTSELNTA
T1 sequence (P30281 whole entry partner): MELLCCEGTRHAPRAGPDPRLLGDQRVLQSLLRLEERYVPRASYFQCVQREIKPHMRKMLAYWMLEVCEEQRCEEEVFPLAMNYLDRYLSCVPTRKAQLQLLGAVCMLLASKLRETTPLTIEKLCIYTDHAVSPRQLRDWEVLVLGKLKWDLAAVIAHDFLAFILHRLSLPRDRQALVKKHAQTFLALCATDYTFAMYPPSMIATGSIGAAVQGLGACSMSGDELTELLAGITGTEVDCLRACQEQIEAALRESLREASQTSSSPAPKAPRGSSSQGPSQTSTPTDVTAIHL

In the case of `O=C1NCCC12Cc1cnc(Nc3cc(C(F)(F)F)c(N4CCNCC4)cn3)nc1N2C1CCCC1` (centres unmarked) [Compound C17, 7′-cyclopentyl-2′-((5-(piperazin-1-yl)-4-(trifluoromethyl)pyridin-2-yl)amino)-5′,7′-dihydrospiro[pyrrolidine-3,6′-pyrrolo[2,3-d]pyrimidin]-2-one], the figures for the half-maximal inhibitory concentration (IC50) in assay [1] and in assay [2] were over 30 µM and 18.8 µM, respectively.
Take `CN1CCN(c2cnc(Nc3ncc4c(n3)N(C3CCCC3)C3(CCNC3=O)C4)cc2C(F)(F)F)CC1` (centres unmarked) [Compound C18, 7′-cyclopentyl-2′-((5-(4-methylpiperazin-1-yl)-4-(trifluoromethyl)pyridin-2-yl)amino)-5′,7′-dihydrospiro[pyrrolidine-3,6′-pyrrolo[2,3-d]pyrimidin]-2-one]: the IC50 in assay [1] and in assay [2] was over 30 µM each time.
Take `CN1CCC2(Cc3cnc(Nc4ccc(N5CCNCC5)cn4)nc3N2C2CCCC2)C1=O` (centres unmarked) [Compound C19, 7′-cyclopentyl-1-methyl-2′-((5-(piperazin-1-yl)pyridin-2-yl)amino)-5′,7′-dihydrospiro[pyrrolidine-3,6′-pyrrolo[2,3-d]pyrimidin]-2-one]: the IC50 in assay [1] and in assay [2] was over 30 µM each time.
For `CN1CCN(c2ccc(Nc3ncc4c(n3)N(C3CCCC3)C3(CCN(C)C3=O)C4)nc2)CC1` (centres unmarked) [Compound C20, 7′-cyclopentyl-1-methyl-2′-((5-(4-methylpiperazin-1-yl)pyridin-2-yl)amino)-5′,7′-dihydrospiro[pyrrolidine-3,6′-pyrrolo[2,3-d]pyrimidin]-2-one], the IC50 in assay [1] and in assay [2] was over 30 µM in each case.
For `O=C1N(Cc2ccccc2)CCC12Cc1cnc(Nc3ccc(N4CCNCC4)cn3)nc1N2C1CCCC1` (centres unmarked) [Compound C21], the IC50 in assay [1] and in assay [2] was over 30 µM each time.
For the compound `CN1CCN(c2ccc(Nc3ncc4c(n3)N(C3CCCC3)C3(CCN(Cc5ccccc5)C3=O)C4)nc2)CC1` (centres unmarked) [Compound C22, 1-benzyl-7′-cyclopentyl-2′-((5-(4-methylpiperazin-1-yl)pyridin-2-yl)amino)-5′,7′-dihydrospiro[pyrrolidine-3,6′-pyrrolo[2,3-d]pyrimidin]-2-one], the values for the IC50 in assay [1] and in assay [2] were over 30 µM and 16.5 µM, respectively.
Turning to `CC(C)N1CCN(c2ccc(Nc3ncc4c(n3)N(C3CCCC3)C3(CCN(Cc5ccccc5)C3=O)C4)nc2)CC1` (centres unmarked) [Compound C23, 1-benzyl-7′-cyclopentyl-2′-((5-(4-isopropylpiperazin-1-yl)pyridin-2-yl)amino)-5′,7′-dihydrospiro[pyrrolidine-3,6′-pyrrolo[2,3-d]pyrimidin]-2-one], the half-inhibitory concentration (IC50) was over 30 µM in assay [1] and 17.7 µM in assay [2].
For `CN1CCN(c2ccc(Nc3ncc4c(n3)N(C3CCCC3)C3(CCN(Cc5ccccc5)C3=O)C4)cc2)CC1` (centres unmarked) [Compound C24, 1-benzyl-7′-cyclopentyl-2′-((4-(4-methylpiperazin-1-yl)phenyl)amino)-5′,7′-dihydrospiro[pyrrolidine-3,6′-pyrrolo[2,3-d]pyrimidin]-2-one] the same measures were over 30 µM and 12.3 µM.
Take `CN1CCCC2(Cc3cnc(Nc4ccc(N5CCNCC5)cn4)nc3N2C2CCCC2)C1=O` (centres unmarked) [Compound C25, 7′-cyclopentyl-1-methyl-2′-((5-(piperazin-1-yl)pyridin-2-yl)amino)-5′,7′-dihydrospiro[piperidine-3,6′-pyrrolo[2,3-d]pyrimidin]-2-one]: the IC50 in assay [1] and in assay [2] was over 30 µM in each case.
Consider `CN1CCN(c2ccc(Nc3ncc4c(n3)N(C3CCCC3)C3(CCCN(C)C3=O)C4)nc2)CC1` (centres unmarked) [Compound C26, 7′-cyclopentyl-1-methyl-2′-((5-(4-methylpiperazin-1-yl)pyridin-2-yl)amino)-5′,7′-dihydrospiro[piperidine-3,6′-pyrrolo[2,3-d]pyrimidin]-2-one], for which the IC50 in assay [1] and in assay [2] was over 30 µM each time.
For the compound `O=C1N(Cc2ccccc2)CCCC12Cc1cnc(Nc3ccc(N4CCNCC4)cn3)nc1N2C1CCCC1` (centres unmarked) [Compound C27, 1-benzyl-7′-cyclopentyl-2′-((5-(piperazin-1-yl)pyridin-2-yl)amino)-5′,7′-dihydrospiro[piperidine-3,6′-pyrrolo[2,3-d]pyrimidin]-2-one], the IC50 in assay [1] and in assay [2] was over 30 µM throughout.
With `CN1CCN(c2ccc(Nc3ncc4c(n3)N(C3CCCC3)C3(CCCN(Cc5ccccc5)C3=O)C4)nc2)CC1` (centres unmarked) [Compound C28, 1-benzyl-7′-cyclopentyl-2′-((5-(4-methylpiperazin-1-yl)pyridin-2-yl)amino)-5′,7′-dihydrospiro[piperidine-3,6′-pyrrolo[2,3-d]pyrimidin]-2-one], the IC50 in assay [1] and in assay [2] was over 30 µM in each case.
For the compound `COc1ccc(CN2CCC3(Cc4cnc(Nc5ccc(N6CCNCC6)cn5)nc4N3C3CCCC3)C2=O)cc1` (centres unmarked) [Compound C29, 7′-cyclopentyl-1-(4-methoxybenzyl)-2′-((5-(piperazin-1-yl)pyridin-2-yl)amino)-5′,7′-dihydrospiro[pyrrolidine-3,6′-pyrrolo[2,3-d]pyrimidin]-2-one], the IC50 in assay [1] is over 30 µM; in assay [2], 7.78 µM.
For `COc1ccc(CN2CCC3(Cc4cnc(Nc5ccc(N6CCN(C)CC6)cn5)nc4N3C3CCCC3)C2=O)cc1` (centres unmarked) [Compound C30, 7′-cyclopentyl-1-(4-methoxybenzyl)-2′-((5-(4-methylpiperazin-1-yl)pyridin-2-yl)amino)-5′,7′-dihydrospiro[pyrrolidine-3,6′-pyrrolo[2,3-d]pyrimidin]-2-one] the same measures were over 30 µM and 8.21 µM.
For `COc1ccc(CN2CCC3(Cc4cnc(Nc5ccc(N6CCN(C(C)C)CC6)cn5)nc4N3C3CCCC3)C2=O)cc1` (centres unmarked) [Compound C31, 7′-cyclopentyl-2′-((5-(4-isopropylpiperazin-1-yl)pyridin-2-yl)amino)-1-(4-methoxybenzyl)-5′,7′-dihydrospiro[pyrrolidine-3,6′-pyrrolo[2,3-d]pyrimidin]-2-one] the same measures were over 30 µM and 7.28 µM.
In the case of `COc1ccc(CN2CCC3(Cc4cnc(Nc5ccc(OCCN(C)C)cn5)nc4N3C3CCCC3)C2=O)cc1` (centres unmarked) [Compound C32, 7′-cyclopentyl-2′-((5-(2-(dimethylamino)ethoxy)pyridin-2-yl)amino)-1-(4-methoxybenzyl)-5′,7′-dihydrospiro[pyrrolidine-3,6′-pyrrolo[2,3-d]pyrimidin]-2-one], the IC50 was over 30 µM in assay [1] and 10.5 µM in assay [2].
On to `O=C1NCCC12Cc1cnc(Nc3ccc(N4CCNCC4)cn3)nc1N2C1CCCC1` (centres unmarked) [Compound C33, 7′-cyclopentyl-2′-((5-(piperazin-1-yl)pyridin-2-yl)amino)-5′,7′-dihydrospiro[pyrrolidine-3,6′-pyrrolo[2,3-d]pyrimidin]-2-one], for which the results for the concentration for half-maximal inhibition (IC50) in assay [1] and in assay [2] were 2.08 µM and 0.694 µM, respectively.
For `CN1CCN(c2ccc(Nc3ncc4c(n3)N(C3CCCC3)C3(CCNC3=O)C4)nc2)CC1` (centres unmarked) [Compound C34, 7′-cyclopentyl-2′-((5-(4-methylpiperazin-1-yl)pyridin-2-yl)amino)-5′,7′-dihydrospiro[pyrrolidine-3,6′-pyrrolo[2,3-d]pyrimidin]-2-one] the same measures were 3.7 µM and 1.16 µM.
On the same counts, the results for `O=C1NCCCC12Cc1cnc(Nc3ccc(N4CCNCC4)cn3)nc1N2C1CCCC1` (centres unmarked) [Compound C35, 7′-cyclopentyl-2′-((5-(piperazin-1-yl)pyridin-2-yl)amino)-5′,7′-dihydrospiro[piperidine-3,6′-pyrrolo[2,3-d]pyrimidin]-2-one] are over 30 µM and 19.6 µM.
On the same counts, the results for `CN1CCN(c2ccc(Nc3ncc4c(n3)N(C3CCCC3)C3(CCCNC3=O)C4)nc2)CC1` (centres unmarked) [Compound C36, 7′-cyclopentyl-2′-((5-(4-methylpiperazin-1-yl)pyridin-2-yl)amino)-5′,7′-dihydrospiro[piperidine-3,6′-pyrrolo[2,3-d]pyrimidin]-2-one] are over 30 µM and 29.3 µM.
Take `CC(C)N1CCN(c2ccc(Nc3ncc4c(n3)N(C3CCCC3)C3(CCCNC3=O)C4)nc2)CC1` (centres unmarked) [Compound C37, 7′-cyclopentyl-2′-((5-(4-isopropylpiperazin-1-yl)pyridin-2-yl)amino)-5′,7′-dihydrospiro[piperidine-3,6′-pyrrolo[2,3-d]pyrimidin]-2-one]: the IC50 in assay [1] and in assay [2] was over 30 µM each time.
Take `CC(C)N1CCN(c2ccc(Nc3ncc4c(n3)N(C3CCCC3)C3(CCNC3=O)C4)nc2)CC1` (centres unmarked) [Compound C38, 7′-cyclopentyl-2′-((5-(4-isopropylpiperazin-1-yl)pyridin-2-yl)amino)-5′,7′-dihydrospiro[pyrrolidine-3,6′-pyrrolo[2,3-d]pyrimidin]-2-one]: the results for the IC50 in assay [1] and in assay [2] were 2.99 µM and 0.631 µM, respectively.
Consider `CN1CCN(c2ccc(Nc3ncc4c(n3)N(C3CCCC3)C3(CCN(Cc5ccccc5)C3=O)C4)cc2F)CC1` (centres unmarked) [Compound C39, 1-benzyl-7′-cyclopentyl-2′-((3-fluoro-4-(4-methylpiperazin-1-yl)phenyl)amino)-5′,7′-dihydrospiro[pyrrolidine-3,6′-pyrrolo[2,3-d]pyrimidin]-2-one], for which the concentration for half-maximal inhibition (IC50) in assay [1] stood at 2.55 µM; in assay [2], 0.53 µM.
On the same counts, the results for `CN1CCN(c2ccc(Nc3ncc4c(n3)N(C3CCCC3)C3(CCCN(Cc5ccccc5)C3=O)C4)cc2F)CC1` (centres unmarked) [Compound C40, 1-benzyl-7′-cyclopentyl-2′-((3-fluoro-4-(4-methylpiperazin-1-yl)phenyl)amino)-5′,7′-dihydrospiro[piperidine-3,6′-pyrrolo[2,3-d]pyrimidin]-2-one] are 10.7 µM and 2.96 µM.
For `CN1CCN(c2ccc(Nc3ncc4c(n3)N(C3CCCC3)C3(CCN(Cc5ccccc5)C3=O)C4)c(F)c2)CC1` (centres unmarked) [Compound C41, 1-benzyl-7′-cyclopentyl-2′-((2-fluoro-4-(4-methylpiperazin-1-yl)phenyl)amino)-5′,7′-dihydrospiro[pyrrolidine-3,6′-pyrrolo[2,3-d]pyrimidin]-2-one], the IC50 in assay [1] is 12.8 µM; in assay [2] it was 5.98 µM.
